According to the supplement of paper PMC10307832:

Key:
Assay in all cases: relative viability (nuclei count vs DMSO), 5 days (fraction); higher = more cells survive
[1] = compound: CC1=C(C(=NN1)C)CC2=C(C3=C(S2)N(C(=O)N(C3=O)C)CC(C)C)C(=O)N4C[C@@H](CO4)O + N=C(N)NC(=N)NCCc1ccccc1 [Phenformin] (partner 250 µM)
Outline: (§1)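 Relative viability divides the nuclei count in treated wells by that in vehicle wells. Lung cancer cell lines were seeded in 1536-well plates, dosed by pin tool the next day, and fixed and stained after 5 days in one step with final 0.05% Triton X-100, 1% formaldehyde and 1 ug/ml Hoechst. Dosing was a single drug or a fixed anchor-drug dose plus five library-drug doses (not always all listed) in √10 steps, and values are medians of duplicate plates imaged at 4×.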

IDH-C35 + Trametinib = compound: Cc1ccccc1C(C(=O)NC1CCCCC1)N(C(=O)Cn1ccnc1C)c1cccc(F)c1 [IDH-C35] + CC(=O)Nc1cccc(-n2c(=O)n(C3CC3)c(=O)c3c(Nc4ccc(I)cc4F)n(C)c(=O)c(C)c32)c1 [Trametinib] (partner 0.02 µM)
Outline: as §1

IDH-C35 + Vorinostat = compound: Cc1ccccc1C(C(=O)NC1CCCCC1)N(C(=O)Cn1ccnc1C)c1cccc(F)c1 [IDH-C35] + O=C(CCCCCCC(=O)Nc1ccccc1)NO [Vorinostat] (partner 1 µM)
Outline: as §1

IDH-C35 + Pictilisib = compound: Cc1ccccc1C(C(=O)NC1CCCCC1)N(C(=O)Cn1ccnc1C)c1cccc(F)c1 [IDH-C35] + CS(=O)(=O)N1CCN(Cc2cc3nc(-c4cccc5[nH]ncc45)nc(N4CCOCC4)c3s2)CC1 [Pictilisib] (partner 1 µM)
Outline: as §1

Row | Cell Line | relative viability ([1]; first compound 0.0025 µM) | relative viability ([1]; first compound 0.007906 µM) | relative viability ([1]; first compound 0.025 µM) | relative viability ([1]; first compound 0.07906 µM) | relative viability ([1]; first compound 0.25 µM) | relative viability (IDH-C35 + Trametinib; first compound 0.08 µM) | relative viability (IDH-C35 + Trametinib; first compound 0.253 µM) | relative viability (IDH-C35 + Trametinib; first compound 0.8 µM) | relative viability (IDH-C35 + Trametinib; first compound 2.53 µM) | relative viability (IDH-C35 + Trametinib; first compound 8 µM) | relative viability (IDH-C35 + Vorinostat; first compound 0.08 µM) | relative viability (IDH-C35 + Vorinostat; first compound 0.253 µM) | relative viability (IDH-C35 + Vorinostat; first compound 0.8 µM) | relative viability (IDH-C35 + Vorinostat; first compound 2.53 µM) | relative viability (IDH-C35 + Vorinostat; first compound 8 µM) | relative viability (IDH-C35 + Pictilisib; first compound 0.08 µM) | relative viability (IDH-C35 + Pictilisib; first compound 0.253 µM) | relative viability (IDH-C35 + Pictilisib; first compound 0.8 µM) | relative viability (IDH-C35 + Pictilisib; first compound 2.53 µM) | relative viability (IDH-C35 + Pictilisib; first compound 8 µM)
1 | 201T | 0.468 | 0.383 | 0.426 | 0.472 | 0.426 | 0.727 | 0.7 | 0.718 | 0.701 | 0.676 | 1 | 0.942 | 0.946 | 0.641 | 0.951 | 0.651 | 0.731 | 0.634 | 0.661 | 0.676
2 | A549 | 0.116 | 0.0979 | 0.151 | 0.161 | 0.168 |  |  |  |  |  |  |  |  |  |  | 0.532 | 0.504 | 0.595 | 0.472 | 0.401
3 | A-427 | 0.301 | 0.264 | 0.24 | 0.375 | 0.349 | 0.791 | 0.784 | 0.77 | 0.722 | 0.705 | 0.868 | 0.796 | 0.848 | 0.901 | 0.856 | 0.621 | 0.801 | 0.615 | 0.466 | 0.791
4 | ABC-1 | 0.18 | 0.174 | 0.173 | 0.186 | 0.214 |  |  |  |  |  | 1.12 | 1.07 | 0.941 | 1.23 | 1.3 | 0.675 | 0.667 | 0.617 | 0.984 | 0.908
5 | BEN | 0.223 | 0.166 | 0.221 | 0.18 | 0.206 | 0.954 | 1.04 | 1.02 | 1.16 | 1.16 | 0.576 | 0.608 | 0.618 | 0.568 | 0.593 | 0.545 | 0.568 | 0.54 | 0.54 | 0.505
6 | CAL-12T | 0.551 | 0.627 | 0.544 | 0.629 | 0.575 | 0.389 | 0.434 | 0.371 | 0.36 | 0.354 | 0.69 | 0.947 | 0.815 | 0.882 | 0.791 | 0.347 | 0.429 | 0.559 | 0.339 | 0.608
7 | COR-L23 | 0.397 | 0.395 | 0.342 | 0.355 | 0.344 | 0.599 | 0.639 | 0.591 | 0.565 | 0.54 | 0.503 | 0.421 | 0.404 | 0.408 | 0.409 | 0.85 | 0.769 | 0.833 | 0.79 | 0.833
8 | COR-L 105 | 0.34 | 0.324 | 0.231 | 0.279 | 0.244 | 0.444 | 0.451 | 0.446 | 0.485 | 0.39 | 0.932 | 0.959 | 0.722 | 0.803 | 0.688 | 0.442 | 0.477 | 0.354 | 0.383 | 0.392
9 | Calu-6 |  |  |  |  |  |  |  |  |  |  |  |  |  |  |  | 0.875 | 0.895 | 0.881 | 0.877 | 0.898
10 | ChaGo-K-1 | 0.467 | 0.451 | 0.407 | 0.447 | 0.47 | 0.897 | 0.878 | 0.944 | 0.844 | 0.899 | 0.758 | 0.814 | 0.8 | 0.586 | 0.68 | 0.451 | 0.71 | 0.742 | 0.681 | 0.918
11 | EBC-1 |  |  |  |  |  |  |  |  |  |  |  |  |  |  |  | 0.397 | 0.414 | 0.339 | 0.353 | 0.377
12 | EKVX | 0.241 | 0.224 | 0.233 | 0.243 | 0.227 | 0.398 | 0.279 | 0.37 | 0.353 | 0.277 | 0.876 | 0.678 | 0.769 | 0.738 | 0.698 | 0.42 | 0.459 | 0.371 | 0.423 | 0.475
13 | IA-LM |  |  |  |  |  |  |  |  |  |  | 1 | 0.878 | 0.881 |  | 1.05 | 0.381 | 0.382 | 0.33 | 0.325 | 0.322
14 | NCI-H522 | 0.551 | 0.686 | 0.376 | 0.327 | 0.265 | 0.767 | 0.8 | 0.643 | 0.796 | 0.695 | 0.953 | 1.12 | 0.896 | 0.872 | 0.883 |  |  |  |  | 
15 | NCI-H1299 |  |  |  |  |  |  |  |  |  |  |  |  |  |  |  | 0.818 | 0.671 | 0.96 | 0.759 | 0.745
16 | NCI-H1563 | 0.667 | 0.666 | 0.729 | 0.711 | 0.667 |  |  |  |  |  |  |  |  |  |  | 0.646 | 0.682 | 0.662 | 0.619 | 0.619
17 | NCI-H1648 |  |  |  |  |  |  | 0.566 | 0.465 | 0.479 | 0.584 |  | 0.415 | 0.523 | 0.443 | 0.525 |  |  |  |  | 
18 | NCI-H1703 |  |  |  |  |  |  |  |  |  |  |  |  |  |  |  | 0.235 | 0.264 | 0.285 | 0.262 | 0.206
19 | NCI-H1792 | 0.259 | 0.173 | 0.127 | 0.172 | 0.155 | 0.393 | 0.338 | 0.485 | 0.405 | 0.544 |  |  |  |  |  | 0.231 | 0.3 | 0.251 | 0.345 | 0.277
20 | NCI-H2342 | 0.493 | 0.532 | 0.398 | 0.384 | 0.401 | 0.771 | 0.762 | 0.769 | 0.767 | 0.736 | 0.817 | 0.712 | 0.793 | 0.715 | 0.806 |  |  |  |  | 
21 | SW 900 | 0.735 | 0.675 | 0.535 | 0.779 | 0.589 | 0.855 | 0.773 |  | 0.91 | 0.767 | 0.496 | 0.44 |  | 0.505 | 0.529 |  |  |  |  | 
